The source of these data is publication PMC11061460, “Acyl pyrazole sulfonamides as new antidiabetic agents: synthesis, glucosidase inhibition studies, and molecular docking analysis” (Frontiers in Chemistry, 2024).

The target of data set [1] is α-glucosidase (Saccharomyces cerevisiae, UniProt P53341). As to the kind of experiment: biochemical. It is filed as biochemical.
The test system of data set [2] is β-glucosidase. Briefly: β-glucosidase inhibitory assay in 96-well plates (p-NPG, absorbance 405 nm). Particulars: concentration of 1 mM; end concentration of 100 µM in each well. It is filed as biochemical. The protocol: An already established method was employed to perform α- and β-glucosidase inhibitory assays in 96-well plates ([Kazmi et al., 2017]). In this assay, phosphate buffer (0.07 M pH 6.8) was used to prepare 2.5 U/mL of α-glucosidase, 2.0 U/mL of β-glucosidase, and substrate 4-nitrophenyl-β-D-glucopyranoside (p-NPG) (10 mM) solutions. In addition, 1 mM solution of each test compound was prepared in 10% DMSO to achieve an end concentration of 100 µM in each well. Initially, 10 µL of the respective enzyme was incubated with 10 µL of test compounds for 5 min at 37 °C. Subsequently, 10 µL of p-NPG was added in each well followed by an incubation period of 30 min at 37 °C before adding 80 µL of Na2CO3 (200 mM) as a stop solution to each well. The absorbance was measured at 405 nm, and the percentage inhibition for each of the test compounds was determined by the following equation.
Percentage inhibition = 100–[Slope of test compound/Slope of enzyme control] × 100.
Acarbose was used as a standard drug for evaluating the efficacy of test compounds against α- and β-glucosidase. The inhibitory concentration 50 (IC50) for each of the test compound was determined by GraphPad prism version 10.0.

The mark [3] stands for this setting: read-out: α-glucosidase inhibition IC50 ± SEM.

Like-named read-outs stand apart in the source and are kept apart here.

α-glucosidase, sequence (P53341 whole entry): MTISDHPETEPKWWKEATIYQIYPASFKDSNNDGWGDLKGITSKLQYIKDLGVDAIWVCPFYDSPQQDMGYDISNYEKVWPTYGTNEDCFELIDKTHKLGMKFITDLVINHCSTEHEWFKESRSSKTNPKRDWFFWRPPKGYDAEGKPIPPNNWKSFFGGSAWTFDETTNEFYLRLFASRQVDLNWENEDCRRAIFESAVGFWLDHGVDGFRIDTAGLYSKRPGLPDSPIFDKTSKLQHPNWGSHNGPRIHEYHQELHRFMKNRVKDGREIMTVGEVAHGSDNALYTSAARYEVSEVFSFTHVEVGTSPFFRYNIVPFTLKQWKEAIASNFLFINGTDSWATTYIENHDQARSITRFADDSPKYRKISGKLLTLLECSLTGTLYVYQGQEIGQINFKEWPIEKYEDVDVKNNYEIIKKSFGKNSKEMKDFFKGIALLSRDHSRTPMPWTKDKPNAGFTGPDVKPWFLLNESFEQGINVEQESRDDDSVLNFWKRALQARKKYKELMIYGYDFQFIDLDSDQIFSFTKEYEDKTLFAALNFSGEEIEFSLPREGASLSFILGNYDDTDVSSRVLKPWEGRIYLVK

`Cc1nn(C(=O)c2ccc(Br)cc2)c(C)c1/N=N/c1ccc(S(N)(=O)=O)cc1` [Compound 5i, (E)-4-((1-(4-Bromobenzoyl)-3,5-dimethyl-1H-pyrazol-4-yl)diazenyl)benzenesulfonamide] gave a melting point of 235 to 237 °C. In data set [1], this compound returned an IC50 of 19.1 ± 1.07 µM. For the same compound, in data set [2], the “β-glucosidase inhibition %age inhibition” value is 11.2%.
As to `Cc1n[nH]c(C)c1/N=N/c1ccc(S(N)(=O)=O)cc1` [Compound 5k, (E)-4-((3,5-Dimethyl-1H-pyrazol-4-yl)diazenyl)benzenesulfonamide], the melting point was 188 to 190 °C. The same compound showed an IC50 in data set [1] of 28.3 ± 1.45 µM. The “β-glucosidase inhibition %age inhibition” value in data set [2] amounted to 25.1%.
On to `Cc1nn(C(=O)c2ccc([N+](=O)[O-])cc2)c(C)c1/N=N/c1ccc(S(N)(=O)=O)cc1` [Compound 5e, (E)-4-((3,5-Dimethyl-1-(4-nitrobenzoyl)-1H-pyrazol-4-yl)diazenyl)benzenesulfonamide], for which the melting point lay in the range of 231 to 233 °C. Besides, the “potency relative to acarbose (times/fold more potent)” value in data set [1] was “eight”. Moreover, the IC50 in data set [1] (setting [3]) is 4.11 ± 0.19 µM. Also, the “β-glucosidase inhibition %age inhibition” value in data set [2] came out at 11.7%.
`Cc1ccccc1C(=O)n1nc(C)c(/N=N/c2ccc(S(N)(=O)=O)cc2)c1C` [Compound 5g, (E)-4-((3,5-Dimethyl-1-(2-methylbenzoyl)-1H-pyrazol-4-yl)diazenyl)benzenesulfonamide] displayed an IC50 in data set [1] of 3.47 ± 0.43 µM. Besides, in data set [2], the “β-glucosidase inhibition %age inhibition” value was 21.0%.
With `Cc1nn(C(=O)c2cccc(Cl)c2)c(C)c1/N=N/c1ccc(S(N)(=O)=O)cc1` [Compound 5b, (E)-4-((1-(3-Chlorobenzoyl)-3,5-dimethyl-1H-pyrazol-4-yl)diazenyl)benzenesulfonamide], in data set [1], half-maximal inhibition (IC50) required 2.22 ± 0.11 µM. Also, the “reduction in activity on switching chlorine from para- to meta-position” value in data set [1] (relative to 5a) is 50%. Also, in data set [2], the “β-glucosidase inhibition %age inhibition” value is 32.1%.
Consider `Cc1ccc(C(=O)n2nc(C)c(/N=N/c3ccc(S(N)(=O)=O)cc3)c2C)cc1` [Compound 5h, (E)-4-((3,5-Dimethyl-1-(4-methylbenzoyl)-1H-pyrazol-4-yl)diazenyl)benzenesulfonamide], for which the melting point lay within 218 to 220 °C. Besides, the IC50 in data set [1] (setting [3]) is 9.22 ± 0.45 µM. Further, the “β-glucosidase inhibition %age inhibition” value in data set [2] was 14.6%.
In data set [1], `COc1cccc(C(=O)n2nc(C)c(/N=N/c3ccc(S(N)(=O)=O)cc3)c2C)c1` [Compound 5j, (E)-4-((1-(3-Methoxybenzoyl)-3,5-dimethyl-1H-pyrazol-4-yl)diazenyl)benzenesulfonamide] returned an IC50 of 17.9 ± 1.16 µM. The “β-glucosidase inhibition %age inhibition” value in data set [2] was found to be 7.55%.
For the compound `COc1ccc(C(=O)n2nc(C)c(/N=N/c3ccc(S(N)(=O)=O)cc3)c2C)cc1OC` [Compound 5d, (E)-4-((1-(3,4-Dimethoxybenzoyl)-3,5-dimethyl-1H-pyrazol-4-yl)diazenyl)benzenesulfonamide], the melting point was 226 to 228 °C. Moreover, the midpoint of inhibition in data set [1], the IC50, lay at 4.53 ± 0.12 µM. Further, the “β-glucosidase inhibition %age inhibition” value in data set [2] is listed as 18.5%.
`Cc1nn(C(=O)c2cccc([N+](=O)[O-])c2)c(C)c1/N=N/c1ccc(S(N)(=O)=O)cc1` [Compound 5f, (E)-4-((3,5-Dimethyl-1-(3-nitrobenzoyl)-1H-pyrazol-4-yl)diazenyl)benzenesulfonamide]: in data set [1] (setting [3]), the IC50 stood at 2.77 ± 0.24 µM. The “β-glucosidase inhibition %age inhibition” value in data set [2] was 27.4%.
In turn, `COc1ccc(C(=O)n2nc(C)c(/N=N/c3ccc(S(N)(=O)=O)cc3)c2C)cc1` [Compound 5c, (E)-4-((1-(4-Methoxybenzoyl)-3,5-dimethyl-1H-pyrazol-4-yl)diazenyl)benzenesulfonamide] came in with a melting point of 202 to 205 °C. Moreover, the half-maximal inhibitory concentration (IC50) in data set [1] (setting [3]) was 3.29 ± 0.09 µM. For the same compound, the “β-glucosidase inhibition %age inhibition” value in data set [2] was determined as 12.9%.
Regarding `Cc1nn(C(=O)c2ccc(Cl)cc2)c(C)c1/N=N/c1ccc(S(N)(=O)=O)cc1` [Compound 5a, (E)-4-((1-(4-Chlorobenzoyl)-3,5-dimethyl-1H-pyrazol-4-yl)diazenyl)benzenesulfonamide], the IC50 in data set [1] stood at 1.13 ± 0.06 µM. For the same compound, the “β-glucosidase inhibition %age inhibition” value in data set [2] came out at 34.3%.
`C[C@H]1O[C@H](O[C@H]2[C@H](O)[C@@H](O)[C@@H](O[C@H]3[C@H](O)[C@@H](O)C(O)O[C@@H]3CO)O[C@@H]2CO)[C@H](O)[C@@H](O)[C@@H]1N[C@H]1C=C(CO)[C@@H](O)[C@H](O)[C@H]1O` (stereo partly shown) [Acarbose, reference compound]: the “β-glucosidase inhibition %age inhibition” value in data set [2] turned out to be 63.7%.
